Where two headings read alike, the source gives them in different places.
Key:
[1] = biological target: T1, Full-length (FL)-PRMT5-MEP50 enzyme complex (Homo sapiens, UniProt O14744); assay: PRMT5-MEP50 Enzyme Methylation Assay (Version A); format: biochemical
T1 construct: Full-length (FL)-PRMT5-MEP50 enzyme complex (recombinant proteins from baculovirus-transfected Sf21 cells: FL-PRMT5; MW=73837 kDa and FL-MEP50; MW=38614); made in house; host or cells: baculovirus-transfected Sf21 cells
Method in brief: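 Compound was pre-incubated with enzyme for 60 min, then reacted 150 min at 37° C. at final 1.0 nM PRMT5-MEP50, 15 μM SAM and 75 nM biotinylated H4R3(Me1) peptide, in 50 mM Bicine pH 8.0 with 1% DMSO. SAMDI mass-spectrometric readout of Me1→Me2 conversion. EC50 from 4- or 7-parameter regression.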

[2] = system: symmetric dimethylation of arginine (SDMA) of PRMT5 substrates in MCF-7 cells; assay: PRMT5 Cell Target Engagement (TE) Assay; format: cell-based; conditions: Homo sapiens, MCF7, 72 h, 3 days treatment, SDMA high content imaging
Method in brief: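 Readout is single-cell nuclear symmetric-dimethylarginine immunofluorescence (Alexa488), normalized to DMSO-treated cells. Compounds were applied to MCF-7 cells for 3 days at 37 °C, top concentration 10000 nM in 1:3 steps over ten points; curves fitted with 4-parameter robust fit.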

[3] = single EC50 = 4 parameter single site sigmoidal fit, EC50 1 = first value of 7 parameter biphasic fit, read-out: Enzyme Methylation Assay Version A (EC50 or EC50 1)
[4] = second value of 7 parameter biphasic fit, read-out: Enzyme Methylation Assay Version A (EC50 2)

T1 sequence (O14744 whole entry): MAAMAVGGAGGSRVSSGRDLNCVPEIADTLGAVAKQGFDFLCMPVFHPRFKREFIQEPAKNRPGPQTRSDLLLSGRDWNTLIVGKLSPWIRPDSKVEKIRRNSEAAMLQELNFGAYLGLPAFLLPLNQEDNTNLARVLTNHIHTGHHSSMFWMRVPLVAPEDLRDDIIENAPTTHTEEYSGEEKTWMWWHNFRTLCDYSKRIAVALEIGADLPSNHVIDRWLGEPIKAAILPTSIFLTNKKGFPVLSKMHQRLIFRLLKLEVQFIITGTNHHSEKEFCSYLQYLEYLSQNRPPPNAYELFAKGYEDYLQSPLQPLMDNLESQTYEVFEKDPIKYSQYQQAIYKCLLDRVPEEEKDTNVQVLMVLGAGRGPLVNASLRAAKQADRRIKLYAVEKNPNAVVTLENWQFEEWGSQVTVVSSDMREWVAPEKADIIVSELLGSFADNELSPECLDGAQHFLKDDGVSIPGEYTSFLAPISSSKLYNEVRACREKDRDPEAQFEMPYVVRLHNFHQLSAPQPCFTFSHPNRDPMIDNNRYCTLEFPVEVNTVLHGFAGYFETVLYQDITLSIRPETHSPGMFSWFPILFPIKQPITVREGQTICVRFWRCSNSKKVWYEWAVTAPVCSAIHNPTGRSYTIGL
T1 sequence (Q9BQA1 whole entry partner): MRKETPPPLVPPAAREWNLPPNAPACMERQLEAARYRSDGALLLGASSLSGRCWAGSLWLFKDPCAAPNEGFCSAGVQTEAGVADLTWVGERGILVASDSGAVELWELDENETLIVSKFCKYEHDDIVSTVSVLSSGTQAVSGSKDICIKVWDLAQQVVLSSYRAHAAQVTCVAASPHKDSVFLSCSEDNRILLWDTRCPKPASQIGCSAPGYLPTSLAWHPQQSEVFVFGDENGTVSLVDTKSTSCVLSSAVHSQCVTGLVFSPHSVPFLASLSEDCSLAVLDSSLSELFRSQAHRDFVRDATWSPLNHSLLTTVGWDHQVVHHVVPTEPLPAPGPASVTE

EC50 [1, 3] [nM] | EC50 [2] [nM] | EC50 [1, 4] [nM] | SMILES
204 | 4160 | 17400 | Cc1ccc(C(=O)N2CC[C@]3(Cc4ccccc4CN3)[C@H](O)C2)c(O)n1 [Example 219, 3-{[(3R,3′R)-3′-hydroxy-1,4-dihydro-1′H,2H-spiro[isoquinoline-3,4′-piperidin]-1′-yl]carbonyl}-6-methyl-2(1H)-pyridinone]
432 | ≥ 10000 | 25400 | O=C(c1cn(C2CC2)cn1)N1CC[C@]2(Cc3ccccc3CN2)[C@H](O)C1 [Example 222, (1-cyclopropyl-1H-imidazol-4-yl)[(3R,3′R)-3′-hydroxy-1,4-dihydro-1′H,2H-spiro[isoquinoline-3,4′-piperidin]-1′-yl]methanone]
144 | 254 | – | Cc1ccc2c(c1)CN[C@@]1(CCN(C(=O)c3cn4cc(C5CC5)cnc4n3)C[C@H]1O)C2 [Example 228]
5.38 | 124 | – | CO[C@H](C)c1cc(N2CCC(n3ccnc3)C2)cn2cc(C(=O)N3CC[C@]4(Cc5ccccc5CN4)[C@H](O)C3)nc12 (stereo partly drawn) [Example 230, [(3R,3′R)-3′-hydroxy-1,4-dihydro-1′H,2H-spiro[isoquinoline-3,4′-piperidin]-1′-yl]{6-[3-(1H-imidazol-1-yl)-1-pyrrolidinyl]-8-[(1R)-1-methoxyethyl]imidazo[1,2-a]pyridin-2-yl}methanone]
11.3 | 66.4 | – | CO[C@H](C)c1cc(N2Cc3cnn(C)c3C2)cn2cc(C(=O)N3CC[C@]4(Cc5ccccc5CN4)[C@H](O)C3)nc12 [Example 231, [(3R,3′R)-3′-hydroxy-1,4-dihydro-1′H,2H-spiro[isoquinoline-3,4′-piperidin]-1′-yl]{8-[(1R)-1-methoxyethyl]-6-(1-methyl-4,6-dihydropyrrolo[3,4-c]pyrazol-5(1H)-yl)imidazo[1,2-a]pyridin-2-yl}methanone]
6.82 | 23.8 | – | CO[C@H](C)c1cc(N(C)Cc2nonc2C)cn2cc(C(=O)N3CC[C@]4(Cc5ccccc5CN4)[C@H](O)C3)nc12 [Example 234, [(3R,3′R)-3′-hydroxy-1,4-dihydro-1′H,2H-spiro[isoquinoline-3,4′-piperidin]-1′-yl](8-[(1R)-1-methoxyethyl]-6-{methyl[(4-methyl-1,2,5-oxadiazol-3-yl)methyl]amino}imidazo[1,2-a]pyridin-2-yl)methanone]
7.09 | 20.6 | – | CO[C@H](C)c1cc(N2CC3(CCCO3)C2)cn2cc(C(=O)N3CC[C@]4(Cc5ccccc5CN4)[C@H](O)C3)nc12 [Example 236, [(3R,3′R)-3′-hydroxy-1,4-dihydro-1′H,2H-spiro[isoquinoline-3,4′-piperidin]-1′-yl]{8-[(1R)-1-methoxyethyl]-6-(5-oxa-2-azaspiro[3.4]oct-2-yl)imidazo[1,2-a]pyridin-2-yl}methanone]
0.932 | 4.87 | 211 | CO[C@H](C)c1cc(-c2cncs2)cn2cc(C(=O)N3CC[C@]4(Cc5ccccc5CN4)[C@H](O)C3)nc12 [Example 241, [(3R,3′R)-3′-hydroxy-1,4-dihydro-1′H,2H-spiro[isoquinoline-3,4′-piperidin]-1′-yl]{8-[(1R)-1-methoxyethyl]-6-(1,3-thiazol-5-yl)imidazo[1,2-a]pyridin-2-yl}methanone]
0.7 | 1.81 | – | CO[C@H](C)c1cc(-c2ccnn2C)cn2cc(C(=O)N3CC[C@]4(Cc5ccccc5CN4)[C@H](O)C3)nc12 [Example 242, [(3R,3′R)-3′-hydroxy-1,4-dihydro-1′H,2H-spiro[isoquinoline-3,4′-piperidin]-1′-yl]{8-[(1R)-1-methoxyethyl]-6-(1-methyl-1H-pyrazol-5-yl)imidazo[1,2-a]pyridin-2-yl}methanone]

The remaining lines, values behind:

SMILES | EC50 [1, 3] [nM] | EC50 [2] [nM] | EC50 [1, 4] [nM]
O=C(c1cn2cc(Br)cc(Br)c2n1)N1CC[C@]2(Cc3ccccc3CN2)[C@H](O)C1 [Example 218, (6,8-dibromoimidazo[1,2-a]pyridin-2-yl)[(3R,3′R)-3′-hydroxy-1,4-dihydro-1′H,2H-spiro[isoquinoline-3,4′-piperidin]-1′-yl]methanone] | 1.97 | 4.07 | –
Cc1ccc(C(=O)N2CC[C@]3(Cc4ccccc4CN3)[C@H](O)C2)c(C)n1 [Example 220, (2,6-dimethyl-3-pyridinyl)[(3R,3′R)-3′-hydroxy-1,4-dihydro-1′H,2H-spiro[isoquinoline-3,4′-piperidin]-1′-yl]methanone] | 83.2 | 2100 | 2600
Cc1ccc(C(=O)N2CC[C@]3(Cc4ccccc4CN3)[C@H](O)C2)cn1 [Example 221, [(3R,3′R)-3′-hydroxy-1,4-dihydro-1′H,2H-spiro[isoquinoline-3,4′-piperidin]-1′-yl](6-methyl-3-pyridinyl)methanone] | 43.6 | 2540 | 3510
Cc1cn2cc(C(=O)N3CC[C@]4(Cc5ccccc5CN4)[C@H](O)C3)nc2s1 [Example 223, [(3R,3′R)-3′-hydroxy-1,4-dihydro-1′H,2H-spiro[isoquinoline-3,4′-piperidin]-1′-yl](2-methylimidazo[2,1-b][1,3]thiazol-6-yl)methanone] | 22.1 | 445 | 631
O=C(c1cn(C(F)F)cn1)N1CC[C@]2(Cc3ccccc3CN2)[C@H](O)C1 [Example 224, [1-(difluoromethyl)-1H-imidazol-4-yl][(3R,3′R)-3′-hydroxy-1,4-dihydro-1′H,2H-spiro[isoquinoline-3,4′-piperidin]-1′-yl]methanone] | 3510 | ≥ 10000 | 66800
COCCN(C)c1cc([C@@H](C)OC)c2nc(C(=O)N3CC[C@]4(Cc5ccccc5CN4)[C@H](O)C3)cn2c1 [Example 229, [(3R,3′R)-3′-hydroxy-1,4-dihydro-1′H,2H-spiro[isoquinoline-3,4′-piperidin]-1′-yl]{8-[(1R)-1-methoxyethyl]-6-[(2-methoxyethyl)(methyl)amino]imidazo[1,2-a]pyridin-2-yl}methanone] | 0.602 | 22.6 | 234
CO[C@H](C)c1cc(N2CCn3nccc32)cn2cc(C(=O)N3CC[C@]4(Cc5ccccc5CN4)[C@H](O)C3)nc12 [Example 232, {6-(2,3-dihydro-1H-imidazo[1,2-b]pyrazol-1-yl)-8-[(1R)-1-methoxyethyl]imidazo[1,2-a]pyridin-2-yl}[(3R,3′R)-3′-hydroxy-1,4-dihydro-1′H,2H-spiro[isoquinoline-3,4′-piperidin]-1′-yl]methanone] | 5 | 67.3 | –
CO[C@H](C)c1cc(N(C)CCn2ccnc2C)cn2cc(C(=O)N3CC[C@]4(Cc5ccccc5CN4)[C@H](O)C3)nc12 [Example 233, [(3R,3′R)-3′-hydroxy-1,4-dihydro-1′H,2H-spiro[isoquinoline-3,4′-piperidin]-1′-yl](8-[(1R)-1-methoxyethyl]-6-{methyl[2-(2-methyl-1H-imidazol-1-yl)ethyl]amino}imidazo[1,2-a]pyridin-2-yl)methanone] | 3.69 | 76.2 | –
CO[C@H](C)c1cc(N2Cc3ncsc3C2)cn2cc(C(=O)N3CC[C@]4(Cc5ccccc5CN4)[C@H](O)C3)nc12 [Example 235, {6-(4,6-dihydro-5H-pyrrolo[3,4-d][1,3]thiazol-5-yl)-8-[(1R)-1-methoxyethyl]imidazo[1,2-a]pyridin-2-yl}[(3R,3′R)-3′-hydroxy-1,4-dihydro-1′H,2H-spiro[isoquinoline-3,4′-piperidin]-1′-yl]methanone] | 20.6 | 62.7 | –
CO[C@H](C)c1cccn2cc(C(=O)N3CC[C@]4(Cc5ccccc5CN4)[C@H](O)C3)nc12 [Example 237, [(3R,3′R)-3′-hydroxy-1,4-dihydro-1′H,2H-spiro[isoquinoline-3,4′-piperidin]-1′-yl]{8-[(1R)-1-methoxyethyl]imidazo[1,2-a]pyridin-2-yl}methanone] | 9.13 | 258 | 1840
COc1cccnc1-c1cc([C@@H](C)OC)c2nc(C(=O)N3CC[C@]4(Cc5ccccc5CN4)[C@H](O)C3)cn2c1 [Example 238, [(3R,3′R)-3′-hydroxy-1,4-dihydro-1′H,2H-spiro[isoquinoline-3,4′-piperidin]-1′-yl]{8-[(1R)-1-methoxyethyl]-6-(3-methoxy-2-pyridinyl)imidazo[1,2-a]pyridin-2-yl}methanone] | 1.27 | 4.25 | –
CO[C@H](C)c1cc(-c2cccnc2C)cn2cc(C(=O)N3CC[C@]4(Cc5ccccc5CN4)[C@H](O)C3)nc12 [Example 239, [(3R,3′R)-3′-hydroxy-1,4-dihydro-1′H,2H-spiro[isoquinoline-3,4′-piperidin]-1′-yl]{8-[(1R)-1-methoxyethyl]-6-(2-methyl-3-pyridinyl)imidazo[1 2-a]pyridin-2-yl}methanone] | 0.613 | 3.33 | –
COc1nccc(-c2cc([C@@H](C)OC)c3nc(C(=O)N4CC[C@]5(Cc6ccccc6CN5)[C@H](O)C4)cn3c2)n1 [Example 240, [(3R,3′R)-3′-hydroxy-1,4-dihydro-1′H,2H-spiro[isoquinoline-3,4′-piperidin]-1′-yl]{8-[(1R)-1-methoxyethyl]-6-(2-methoxy-4-pyrimidinyl)imidazo[1,2-a]pyridin-2-yl}methanone] | 0.376 | 21 | 112
